Test results taken from PubChem BioAssay (NCI).
Several values for one entry are separate records, joined by “and”; a condition that tells them apart may be missing. Equal entries are not always repeated.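 Dose response: 5 concentrations. Exposure: 48 h. Format: 96-well plates. Endpoint: linear interpolation; highest concentration if not reached. GI50 is the concentration that inhibits growth by half. TGI: total growth inhibition.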 Starred links: 1 amine or outer side, 2 acyl side, 3 side chain; linkers in the order of their positions; H or OH if unused. Positions of bridges follow the written chain, without caps; N, C: chain ends. Non-standard residues stand in square brackets, D forms with d. Residues, ends and D or L forms follow the SMILES beside them. Chains are numbered I, II in the order given. Actinocin(9to1) = Cc1c2oc3c(C)ccc(C(=O)[*:1])c3nc-2c(C(=O)[*:2])c(N)c1=O; NMeY = CN[CH](Cc1ccc(O)cc1)C(=O)O; Sar = CNCC(=O)O

Columns and labels:
Assay in all cases: NCI tumour cell line growth inhibition, 48 h
HT29 colon = test system: HT29 colon
MDA-MB-435 = test system: MDA-MB-435
A549 NSCLC = test system: A549 NSCLC
HOP-92 NSCLC = test system: HOP-92 NSCLC
OVCAR-3 ovarian = test system: OVCAR-3 ovarian
HOP-62 NSCLC = test system: HOP-62 NSCLC
CAKI-1 renal = test system: CAKI-1 renal
K-562 leukemia = test system: K-562 leukemia
MALME-3M melanoma = test system: MALME-3M melanoma
SNB-19 CNS = test system: SNB-19 CNS
HCC-2998 colon = test system: HCC-2998 colon

| Structure (SMILES) | TGI (HT29 colon) | TGI (MDA-MB-435) | TGI (A549 NSCLC) [µM] | TGI (HOP-92 NSCLC) [µM] | TGI (OVCAR-3 ovarian) [µM] | TGI (HOP-62 NSCLC) [µM] | TGI (CAKI-1 renal) [µM] | TGI (K-562 leukemia) [µM] | TGI (MALME-3M melanoma) | TGI (SNB-19 CNS) [µM] | TGI (HCC-2998 colon) | GI50 (HT29 colon) | GI50 (MDA-MB-435) | GI50 (A549 NSCLC) | GI50 (OVCAR-3 ovarian) | GI50 (HCC-2998 colon) | GI50 (K-562 leukemia) | GI50 (SNB-19 CNS) |
| --- | --- | --- | --- | --- | --- | --- | --- | --- | --- | --- | --- | --- | --- | --- | --- | --- | --- | --- |
| O=C1C2SC34c5c2c2ccccc2n5CCC3CCCN14 (stereo unspecified) | > 100 µM | > 100 µM | > 100 | > 100 | > 100 | > 100 | > 100 | > 100 | > 100 µM | > 100 |  |  |  |  |  |  |  |  |
| CC1=NN(c2nc(N)nc(/C(C#N)=C\c3ccc([N+](=O)[O-])s3)n2)C(C)(C)C1 | 0.722 µM | 0.405 µM | 16.5 |  | 0.404 | 1.75 | > 21 | 0.355 | 3.87 µM | 5.97 | 4.4 µM |  |  |  |  |  |  |  |
| COc1cccc(CCNC(=O)Cc2ccccc2CCO)c1 | > 100 µM | > 100 µM | > 100 | > 100 | > 100 | > 100 | > 100 | > 100 |  | > 100 | > 100 µM |  |  |  |  |  |  |  |
| COC(=O)/C=C(\C(=O)OC)C1C(=O)Oc2c(C)c(=O)c3ccccc3n21 (stereo unspecified) | > 100 µM | > 100 µM | > 100 |  | > 100 | > 100 | > 100 | > 100 | > 100 µM | > 100 |  |  |  |  |  |  |  |  |
| COc1cc2c(cc1OC)C(CC1=C(c3ccccc3)CN3CCc4cc(OC)c(OC)cc4C3C1)NCC2 (stereo unspecified) | 26.3 µM |  | 33.5 |  | 34.8 |  | 44.6 | 30.1 | 35.1 µM | 38.8 | 22.7 µM |  |  |  |  |  |  |  |
| CC(=O)CCn1c(=S)sc2ccccc21 | > 100 µM | > 100 µM | > 100 | > 100 | > 100 | > 100 | > 100 |  |  | > 100 | > 100 µM |  |  |  |  |  |  |  |
| CCOC1(OCC)C2C=CC1C(COS(=O)(=O)c1ccc(C)cc1)C2COS(=O)(=O)c1ccc(C)cc1 (stereo unspecified) | > 100 µM | > 100 µM | > 100 | 48 | > 100 | > 100 |  | > 100 | 77.1 µM | > 100 | > 100 µM |  |  |  |  |  |  |  |
| N#CC1C(=S)NC(c2ccccc2)=CC12CCCCC2 (stereo unspecified) | > 100 µM | 40.3 µM | > 100 | 55.3 |  |  | > 100 | > 100 | 43.2 µM | > 100 | > 100 µM |  |  |  |  |  |  |  |
| CC(=O)N=C1N(/C=C2\C(=O)Oc3ccccc3C2=O)C(=O)/C(=C/c2cccc(Cl)c2Cl)N1C | 49.1 µM | > 100 µM | > 100 | 9.38 | 20 | 54.4 | 65.8 | 63.3 | > 100 µM |  | 31.4 µM |  |  |  |  |  |  |  |
| Cn1c(=O)c2c(ncn2CCNC(CO)C(O)c2ccc([N+](=O)[O-])cc2)n(C)c1=O (stereo unspecified) | > 100 µM | > 100 µM | > 100 | > 100 | > 100 | > 100 | > 100 | > 100 | > 100 µM | > 100 |  |  |  |  |  |  |  |  |
| CCO/C(O)=C(/C(=N)N1CCOCC1)C(=O)Nc1ccc(F)cc1 | > 100 µM | > 100 µM | > 100 |  | > 100 | > 100 | > 100 | > 100 | > 100 µM | > 100 | > 100 µM |  |  |  |  |  |  |  |
| CO/N=C(\C(=O)OC(=NC1CCCCC1)NC1CCCCC1)c1csc(NC(c2ccccc2)(c2ccccc2)c2ccccc2)n1 | > 10 µM |  | > 10 | > 10 | > 10 | > 10 | > 10 | > 10 | > 10 µM | > 10 | > 10 µM |  |  |  |  |  |  |  |
| COc1cc(Nc2nc3ccccc3nc2C(=O)O)cc(OC)c1OC |  | > 100 µM | > 100 | 92.7 | > 100 | > 100 | 76.4 | > 100 | > 100 µM | > 100 | > 100 µM |  |  |  |  |  |  |  |
| O=C(O)CCCc1nc2c(n1Cc1ccccc1)C(=O)c1ccccc1C2=O |  |  | > 100 | > 100 | 74.7 |  | > 100 | > 100 | 47 µM | > 100 | > 100 µM |  |  |  |  |  |  |  |
| NC(N)=NCCN1CC2CCC(CC2)C1 | > 100 µM | > 100 µM | > 100 | > 100 | > 100 | > 100 | > 100 |  | > 100 µM | > 100 | > 100 µM |  |  |  |  |  |  |  |
| COc1cc(OC)c2nc(C)c(CCCl)c(Cl)c2c1 | > 100 µM | > 100 µM | > 100 |  | > 100 | > 100 | > 100 | > 100 | > 100 µM | > 100 | > 100 µM |  |  |  |  |  |  |  |
| Cc1c2oc3c(C)ccc(C(=O)NC4C(=O)NC(C(C)C)C(=O)N5CCCC5C(=O)N(C)CC(=O)N(C)C(Cc5ccc(O)cc5)C(=O)OC4C)c3nc-2c(C(=O)NC2C(=O)NC(C(C)C)C(=O)N3CCCC3C(=O)N(C)CC(=O)N(C)C(Cc3ccc(O)cc3)C(=O)OC2C)c(N)c1=O (stereo unspecified) (I: TVP[Sar][NMeY] / II: TVP[Sar][NMeY]; ester I:1-I:C, II:1-II:C; linker I:N-II:N via Actinocin(9to1); configuration not given here) | 0.377 µM and > 0.412 µM | 0.259 µM and 0.147 µM | > 1 | > 1 |  |  | > 1 | > 1 | 0.273 µM and 0.156 µM | > 1 | 0.277 µM and 0.169 µM | 0.00859 µM and 0.00267 µM | 0.0459 µM and 0.0099 µM | 0.0499 µM and 0.0119 µM | 0.0176 µM and 0.00646 µM | 0.104 µM and 0.0112 µM | 0.00338 µM and 0.000595 µM | 0.00797 µM and 0.00332 µM |
| N#C[C@H](c1ccccn1)c1nc2ccccc2nc1Cl | > 100 µM | > 100 µM | > 100 | > 100 | > 100 | > 100 | > 100 |  | > 100 µM | > 100 | > 100 µM |  |  |  |  |  |  |  |
| Cc1c(C)c2c(c(N)c1C#N)C(=O)N(NC(=O)c1ccccc1)C2=O |  | > 100 µM | > 100 | > 100 | > 100 |  | > 100 | > 100 | > 100 µM | > 100 | > 100 µM |  |  |  |  |  |  |  |
| COc1cccc(C(=O)Oc2ccc(OS(=O)(=O)c3ccc(C)cc3)cc2)c1C#N | > 100 µM | > 100 µM | > 100 | > 100 | > 100 | > 100 | > 100 | > 100 | > 100 µM | > 100 |  |  |  |  |  |  |  |  |
| CC1CC(OP(=O)(OCc2ccccc2)OCc2ccccc2)[C@@H](OCc2ccccc2)C(OCc2ccccc2)C1OCc1ccccc1 (stereo partly specified) | > 100 µM |  | > 100 |  |  | > 100 | > 100 | > 100 | > 100 µM | > 100 | > 100 µM |  |  |  |  |  |  |  |
